Tests used:
[1] = target: T1, recombinant human prolyl oligopeptidase (Homo sapiens, UniProt P48147); experiment: Cross reacting enzymes: prolyl oligopeptidase; assay type: biochemical; conditions: concentration range 1*10^−4 M-5*10^−8 M
T1 construct: made in house; host or cells: E. coli
T1 sequence (P48147 1-710): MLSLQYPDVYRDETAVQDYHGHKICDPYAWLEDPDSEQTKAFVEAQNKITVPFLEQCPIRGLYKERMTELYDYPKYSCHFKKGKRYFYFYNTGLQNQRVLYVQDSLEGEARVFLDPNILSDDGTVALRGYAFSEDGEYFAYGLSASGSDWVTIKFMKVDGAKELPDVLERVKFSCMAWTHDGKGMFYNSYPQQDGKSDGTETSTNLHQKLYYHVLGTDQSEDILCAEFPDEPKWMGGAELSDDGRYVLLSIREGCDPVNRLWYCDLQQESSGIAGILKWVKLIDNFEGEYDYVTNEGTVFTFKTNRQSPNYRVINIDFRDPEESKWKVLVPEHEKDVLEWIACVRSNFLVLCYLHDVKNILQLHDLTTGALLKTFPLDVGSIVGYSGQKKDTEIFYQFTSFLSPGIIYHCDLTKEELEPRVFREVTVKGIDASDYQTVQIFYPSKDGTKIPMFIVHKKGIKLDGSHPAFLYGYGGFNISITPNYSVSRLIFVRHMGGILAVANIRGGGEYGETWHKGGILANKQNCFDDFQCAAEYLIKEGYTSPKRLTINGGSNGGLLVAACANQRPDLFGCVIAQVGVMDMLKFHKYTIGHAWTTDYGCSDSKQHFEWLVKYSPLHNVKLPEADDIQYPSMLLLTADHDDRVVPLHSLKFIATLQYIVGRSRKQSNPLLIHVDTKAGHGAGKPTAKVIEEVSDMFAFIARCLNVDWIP
Protocol: (§1) Glutaminyl pyrrolidine or glutaminyl thiazolidine were tested for their cross reacting potency against dipeptidyl peptidase I, prolyl oligopeptidase and prolidase.
Prolyl oligopeptidase (EC 3.4.21.26) is a serine type endoprotease which cleaves off peptides at the N-terminal part of the Xaa-Pro bond (Walter, R., Shlank, H., Glass, J. D., Schwartz, I. L. & Kerenyi, T. D., 1971, Science, 173, 827-829). Substrates are peptides with a molecular weight up to 3000 Da. The enzyme used was a recombinant human prolyl oligopeptidase. Recombinant expression was performed in E. coli under standard conditions as described elsewhere in the state of the art. 100 μL glutaminyl pyrrolidine or glutaminyl thiazolidine in an concentration range of 1*10^−4 M-5*10^−8 M were admixed with 100 μL buffer solution (40 mM HEPES, pH 7.6, 0.015% Brij, 1 mM DTT) and 20 μL POP solution. The assay mixture was pre-incubated at 30° C. for 15 min After pre-incubation, 50 μL glycylprolylprolyl-4-nitroaniline solution (0.29 mM) were added and measurement of yellow color development due to 4-nitroaniline release was performed at 30° C. and λ=405 nm for 10 min using a plate reader (sunrise, Tecan, Crailsheim, Germany). The IC 50-values were calculated using Graphit 4.0.15 (Erithacus Software, Ltd., UK). No inhibition of POP activity by glutaminyl pyrrolidine or glutaminyl thiazolidine was found.

[2] = target: T2, Prolidase from porcine kidney (Sus scrofa, UniProt A0A5G2QQV1); experiment: Cross reacting enzymes: prolidase; assay type: biochemical; conditions: substrate Ile-Pro-OH
T2 construct: Prolidase from porcine kidney (ICN Biomedicals, Eschwege, Germany); purchased ICN Biomedicals, Eschwege, Germany; host or cells: porcine kidney
T2 sequence (A0A5G2QQV1 1-463): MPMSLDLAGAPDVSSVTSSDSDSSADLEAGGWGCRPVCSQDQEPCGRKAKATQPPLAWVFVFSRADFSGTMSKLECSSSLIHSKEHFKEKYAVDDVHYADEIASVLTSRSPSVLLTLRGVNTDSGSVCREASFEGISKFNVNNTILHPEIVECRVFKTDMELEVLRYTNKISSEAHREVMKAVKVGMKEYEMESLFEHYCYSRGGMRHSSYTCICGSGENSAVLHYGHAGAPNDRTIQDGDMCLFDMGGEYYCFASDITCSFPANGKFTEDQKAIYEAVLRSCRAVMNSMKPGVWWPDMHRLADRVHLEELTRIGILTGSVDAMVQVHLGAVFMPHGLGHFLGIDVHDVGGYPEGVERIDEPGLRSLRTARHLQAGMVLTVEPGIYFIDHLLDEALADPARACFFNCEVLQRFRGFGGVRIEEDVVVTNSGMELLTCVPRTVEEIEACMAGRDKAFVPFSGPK
Protocol: as §1
Prolidase (EC 3.4.13.9) was first described by Bergmann & Fruton (Bergmann, M. & Fruton, J. S., 1937, J Biol. Chem. 189-202). Prolidase releases the N-terminal amino acid from Xaa-Pro dipeptides and has a pH optimum between 6 and 9. Prolidase from porcine kidney (ICN Biomedicals, Eschwege, Germany). was solved (1 mg/mL) in assay buffer (20 mM NH4(CH3COO)2, 3 mM MnCl2, pH 7.6). In order to get a fully active enzyme the solution was incubated for 60 min at room temperature. 450 μL glutaminyl pyrrolidine or glutaminyl thiazolidine in an concentration range of 5*10^−3 M-5*10^−7 M were admixed with 500 μL buffer solution (20 mM NH4(CH3COO)2, pH 7.6) and 250 μL Ile-Pro-OH (0.5 mM in the assay mixture). The assay mixture was pre-incubated at 30° C. for 5 min After pre-incubation, 75 μL Prolidase (1:10 diluted in assay buffer) were added and measurement was performed at 30° C. and λ=220 nm for 20 min using a UV/Vis photometer, UVW (Thermo Spectronic, Cambridge, UK). The IC50-values were calculated using Graphit 4.0.15 (Erithacus Software, Ltd., UK).

## NC(=O)CC[C@H](N)C(=O)N1CCCC1 [glutaminyl pyrrolidine]
[1]
  inhibition of POP activity: No inhibition
[2]
  IC50: 340 µM

## NC(=O)CC[C@H](N)C(=O)N1CCSC1 [glutaminyl thiazolidine]
[1]
  inhibition of POP activity: No inhibition
[2]
  IC50: > 3000 µM
